Measured values as given in the NIST ThermoML archive (doi:10.1021/je800497u).

Assay: xn = mol fraction of the nth substance listed
Conditions: 101 kPa, Liquid

CCCCCCCCCO [nonan-1-ol] + CCCCCCCO
Conditions	mass density, 293.15 K [kg/m3]	mass density, 298.15 K [kg/m3]	viscosity, 293.15 K [mPa·s]	viscosity, 298.15 K [mPa·s]
x2 = 0	827.9	824.4	11.68	9.671
x2 = 0.1181	827	823.6	11.16	9.249
x2 = 0.2245	826.6	823.2	10.56	8.777
x2 = 0.307	826.2	822.8	10.02	8.328
x2 = 0.4093	825.7	822.3	9.551	7.951
x2 = 0.5045	825.1	821.7	9.146	7.628
x2 = 0.5969	824.7	821.2	8.61	7.211
x2 = 0.6924	824.2	820.7	8.347	6.976
x2 = 0.7866	823.6	820.2	7.968	6.662
x2 = 0.8883	823	819.5	7.439	6.266

CCCCCCCCCO [nonan-1-ol] + CCCO
Conditions	mass density, 293.15 K [kg/m3]	mass density, 298.15 K [kg/m3]	viscosity, 293.15 K [mPa·s]	viscosity, 298.15 K [mPa·s]
x2 = 0	827.9	824.4	11.68	9.671
x2 = 0.0808	826.5	823.1	10.86	9.007
x2 = 0.2286	824.6	821.2	9.037	7.55
x2 = 0.3296	823.1	819.6	7.921	6.701
x2 = 0.4104	821.7	818.2	7.097	6.002
x2 = 0.5176	819.5	816	6.051	5.147
x2 = 0.6051	817.6	814	5.268	4.513
x2 = 0.6801	815.5	811.9	4.501	3.904
x2 = 0.7961	811.9	808.3	3.583	3.129
x2 = 0.8945	808.3	804.5	2.9	2.554

CCCCCCCCCCCO [1-undecanol] + CCCCCCCO
Conditions	mass density, 293.15 K [kg/m3]	mass density, 298.15 K [kg/m3]	viscosity, 293.15 K [mPa·s]	viscosity, 298.15 K [mPa·s]
x2 = 0	832.5	829	17.18	14.02
x2 = 0.1245	830.7	827.3	16.37	13.36
x2 = 0.2254	830	826.6	14.96	12.26
x2 = 0.2988	829.4	826	13.79	11.3
x2 = 0.4142	828.4	825	12.93	10.66
x2 = 0.5086	827.6	824.2	11.83	9.79
x2 = 0.5895	826.8	823.4	10.82	8.971
x2 = 0.6993	825.7	822.3	9.924	8.253
x2 = 0.7866	824.8	821.3	8.997	7.511
x2 = 0.8888	823.6	820.2	8.005	6.711

CCCCCO [pentan-1-ol] + CCCO
Conditions	mass density, 293.15 K [kg/m3]	mass density, 298.15 K [kg/m3]	viscosity, 293.15 K [mPa·s]	viscosity, 298.15 K [mPa·s]
x2 = 0	814.6	811	4.029	3.494
x2 = 0.0959	813.7	810.1	3.825	3.325
x2 = 0.2143	812.8	809.1	3.584	3.126
x2 = 0.2969	812	808.4	3.446	3.008
x2 = 0.4097	810.9	807.2	3.214	2.828
x2 = 0.5053	809.9	806.2	3.072	2.695
x2 = 0.5963	809	805.2	2.908	2.537
x2 = 0.6924	807.8	804	2.758	2.402
x2 = 0.7892	806.6	802.8	2.582	2.283
x2 = 0.8797	805.4	801.5	2.442	2.126

CCCO [propan-1-ol] + CCCCCCCCCCCO
x1 = 1
Conditions	mass density [kg/m3]	viscosity [mPa·s]
293.15 K	803.5	2.272
298.15 K	799.6	1.966

CCCCCO [pentan-1-ol] + CCCCCCCO
x1 = 1
Conditions	mass density [kg/m3]	viscosity [mPa·s]
293.15 K	814.6	4.029
298.15 K	811	3.494

CCCCCCCCCO [nonan-1-ol] + CCCCCCCCCCCO
x1 = 1
Conditions	mass density [kg/m3]	viscosity [mPa·s]
293.15 K	827.9	11.68
298.15 K	824.4	9.671

CCCCCCCO [heptan-1-ol] + CCCO
Conditions	mass density, 293.15 K [kg/m3]	mass density, 298.15 K [kg/m3]	viscosity, 293.15 K [mPa·s]	viscosity, 298.15 K [mPa·s]
x2 = 0	822.2	818.7	7.104	5.993
x2 = 0.09	821.2	817.7	6.596	5.614
x2 = 0.1795	820.2	816.7	6.08	5.158
x2 = 0.3279	818.2	814.6	5.288	4.519
x2 = 0.4103	816.9	813.3	4.862	4.174
x2 = 0.5058	815.3	811.7	4.282	3.714
x2 = 0.6106	813.5	809.8	3.825	3.342
x2 = 0.6991	811.6	807.9	3.443	3.009
x2 = 0.7989	809.3	805.6	3.011	2.634
x2 = 0.8882	807	803.2	2.643	2.34

CCCCCO [pentan-1-ol] + CCCCCCCCCO
x1 = 1
Conditions	mass density [kg/m3]	viscosity [mPa·s]
293.15 K	814.6	4.029
298.15 K	811	3.494

CCCCCO [pentan-1-ol] + CCCCCCCCCCCO
x1 = 1
Conditions	mass density [kg/m3]	viscosity [mPa·s]
293.15 K	814.6	4.029
298.15 K	811	3.494

CCCO [propan-1-ol] + CCCCCCCCCO
x1 = 1
Conditions	mass density [kg/m3]	viscosity [mPa·s]
293.15 K	803.5	2.272
298.15 K	799.6	1.966

CCCCCCCO [heptan-1-ol] + CCCCCCCCCCCO
x1 = 1
Conditions	mass density [kg/m3]	viscosity [mPa·s]
293.15 K	822.2	7.104
298.15 K	818.7	5.993
